pIC50: −log10 of the molar value.
Key:
Saccharomyces cerevisiae [1] = experiment: DNA damaging activity against wild type (Rad+) yeast assessed as drug level required to produce 12 mm zone of inhibition; format: functional
Saccharomyces cerevisiae [2] = experiment: DNA damaging activity against DNA repair-deficient RS 322YK (rad 52Y) yeast assessed as drug level required to produce 12 mm zone of inhibition; format: functional
Prolyl endopeptidase = Prolyl endopeptidase (Elizabethkingia meningoseptica, UniProt P27028); experiment: Inhibition of Flavobacterium meningosepticum […]
Chain of Prolyl endopeptidase (P27028 21-705 limits assumed): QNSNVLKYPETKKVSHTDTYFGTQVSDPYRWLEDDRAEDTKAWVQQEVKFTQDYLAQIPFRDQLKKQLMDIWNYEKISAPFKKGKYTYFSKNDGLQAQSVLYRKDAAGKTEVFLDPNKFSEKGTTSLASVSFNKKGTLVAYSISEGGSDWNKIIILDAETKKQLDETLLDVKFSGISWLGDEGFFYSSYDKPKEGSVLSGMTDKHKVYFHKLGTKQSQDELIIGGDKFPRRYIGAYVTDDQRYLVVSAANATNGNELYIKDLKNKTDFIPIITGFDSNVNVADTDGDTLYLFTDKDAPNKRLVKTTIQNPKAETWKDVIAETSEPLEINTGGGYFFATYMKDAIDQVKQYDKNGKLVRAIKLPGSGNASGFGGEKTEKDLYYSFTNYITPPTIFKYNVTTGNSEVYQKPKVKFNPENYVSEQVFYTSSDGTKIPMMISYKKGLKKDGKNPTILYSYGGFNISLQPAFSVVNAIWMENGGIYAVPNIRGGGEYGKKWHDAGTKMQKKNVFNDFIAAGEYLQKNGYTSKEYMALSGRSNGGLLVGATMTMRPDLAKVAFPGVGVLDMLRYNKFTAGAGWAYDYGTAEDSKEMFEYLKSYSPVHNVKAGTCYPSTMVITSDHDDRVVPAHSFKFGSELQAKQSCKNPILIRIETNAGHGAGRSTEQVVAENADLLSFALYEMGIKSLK

pIC50 (Prolyl endopeptidase) | Structure (SMILES) | IC12 (Saccharomyces cerevisiae [1]) | IC12 (Saccharomyces cerevisiae [2])
– | CC[C@@]1(O)C(=O)OCc2c1cc1n(c2=O)Cc2cc3ccccc3nc2-1 [CAMPTOTHECIN] | 75 µg/mL | 12 µg/mL
4.77 | CC(=O)OC[C@@]12[C@H](OC(C)=O)[C@H]3[C@@H](OC(C)=O)[C@@H](C)C[C@]3(O)C(=O)[C@@]3(C)OC(C)(C)[C@@H](C=C[C@H]1OC(=O)c1ccccc1)[C@H]23 | – | –
– | CC(=O)OC[C@@]12[C@H](OC(C)=O)[C@H]3[C@@H](OC(C)=O)[C@@H](C)C[C@]3(OC(C)=O)C(=O)[C@@]3(C)OC(C)(C)[C@@H](C=C[C@H]1OC(=O)c1ccccc1)[C@H]23 | 1090 µg/mL | 750 µg/mL
